Laboratory results reported in patent US12325708B2, “Adenosine 2 receptor antagonists” (Nektar Therapeutics, priority 2019, dated 2025).
pKi: −log10 of the molar value.

Legend:
[1] = Plasma pharmacokinetic parameters following intravenous (IV) or oral (PO) administration in rats; format: in vivo, Sprague-Dawley rats; settings: male, Sprague-Dawley, rat, plasma; for AUC / bioavailability: 2.5 mg/kg, oral (PO) administration essentially as described in Example 28; for AUC / clearance / bioavailability: Table 6; for clearance: intravenous, 0.5 mg/kg, essentially as described in Example 28; for bioavailability: po
Experimental: (§1) Adult male Sprague-Dawley rats (230-250 g) (Charles River Labs, Hollister, CA) were utilized for the study. There were 2 rats/group. All animals were food fasted overnight with water provided ad libitum at all times. Compounds 1, 4, 14 and 19 were synthesized as described in Examples 2, 17, 7, and 12, respectively, and formulated in injectable water.
(§2) The morning of each dosing, individual doses were calculated based on current body weights on the day of dosing. The jugular vein cannula (JVC) and the carotid artery cannula (CAC) were externalized, flushed with HEP/saline (10 IU/mL HEP/mL saline), plugged, and labeled to identify the jugular vein and the carotid artery. The IV group animals were dosed at 0.5 mg/kg of Compound 1, 4, 14 or 19, respectively, intravenously via the jugular vein, while the PO dose was administered 2.5 mg/kg of Compound 1, 4, 14 or 19, respectively, orally via gavage. For the IV group, immediately following the dose of test article, the dead volume of the catheter was flushed with 0.9% saline to ensure the animals received the full dose.
Approximately 0.2 mL of blood was collected per time point from JVC. Blood samples were collected at 2 (IV group only), 5, 15, 30, 60, 120, 240, 360, 420 (Compound 19 only), 480, 720 (Compound 19 only), and 1440 minutes via the CAC and transferred immediately into K2EDTA coated tubes pre-loaded 2 μl with quenching cocktail and placed on wet ice. The samples were centrifuged within 30 min after collection at 10,000 RPM for 5 minutes and the resulting plasma was separated. Plasma was transferred into microfuge tubes and placed on dry ice immediately. The plasma samples were stored at approximately −70° C. until bioanalysis.
Plasma samples were extracted by protein precipitation with acetonitrile containing 0.1% formic acid and doxepin for Compound 1 (available from Sigma-Aldrich) or SCH58261 for Compounds 4, 14 and 19 (available from Sigma-Aldrich) as an internal standard. Following vortex and centrifugation, supernatant was diluted 3-fold with water containing 0.1% formic acid and analyzed by LC-MS/MS.
Pharmacokinetic parameters (PK) were determined by non-compartmental analysis (NCA) using Phoenix 64 WinNonlin (version 8) and Dotmatics (version 5.0). Nominal doses and time points were used for the analysis.
The following PK parameters were estimated using plasma concentration-time profile of each animal with the results presented in Table 3: • AUCinf Area under the concentration-time from zero to time infinity • AUClast Area under the concentration-time from zero to time of last concentration value • F Bioavailability • CL Total body clearance • Cmax Maximum (peak) concentration • MRTlast Mean residence time to last observable concentration • Tmax Time to reach maximum or peak concentration following administration • Vss Volume of distribution at steady state
as §1, with “Compound 1 was” for “Compounds 1, 4, 14 and 19 were”, “Example 2” for “Examples 2, 17, 7, and 12, respectively,”
as §2, with “1” for “1, 4, 14 or 19, respectively,”
Approximately 0.2 mL of blood was collected per time point from JVC. […]

[2] = Brain-to-plasma ratio (B/P) after administration; format: in vivo, Sprague-Dawley rats; settings: Sprague-Dawley, rat, oral, 2.5 mg/kg; Table 6; brain-to-plasma ratio at 1 h
From the text: A similar unexpected result was obtained when the phenyl ring present on Compound 1 was replaced with a halogen substituted pyridine. The halogen was previously introduced on the phenyl ring with the aim of blocking a possible metabolic soft-spot, with similar results observed as for Compound 1 in terms of exposure, clearance and bioavailability (Compound 10 and Compound 15). The substituted pyridine ring was designed to modulate the lipophilicity and polar surface area, as well as to address metabolic soft-spot concerns. Clearance and bioavailability parameters remain similar between substituted phenyl and pyridine (Compound 4 and Compound 14) analogs, which span a range in cLogP of 2.7-3.2. It was therefore surprising the significant improvement in exposure and clearance observed for the more lipophilic Compound 19. […] A compound is commonly deemed to be a brain penetrant if the brain-to-blood/plasma concentration ratio (B/P) is greater than 0.04 using methods as known in the art (Schaffer, Annual Reports in Medicinal Chemistry, 45:55-70, 2010).
Plasma pharmacokinetic parameters were determined following oral (PO) administration of further compounds essentially as described in Example 28 with the results shown in Table 6.

A2A receptor = biological target: T1, A2A receptor (Homo sapiens, UniProt P29274); assay: Radioligand receptor binding assay, A2A receptor; settings: cell membranes overexpressing A2A receptor, read-out: Potency Ki A2A
T1 construct: purchased
T1 sequence (P29274 whole entry): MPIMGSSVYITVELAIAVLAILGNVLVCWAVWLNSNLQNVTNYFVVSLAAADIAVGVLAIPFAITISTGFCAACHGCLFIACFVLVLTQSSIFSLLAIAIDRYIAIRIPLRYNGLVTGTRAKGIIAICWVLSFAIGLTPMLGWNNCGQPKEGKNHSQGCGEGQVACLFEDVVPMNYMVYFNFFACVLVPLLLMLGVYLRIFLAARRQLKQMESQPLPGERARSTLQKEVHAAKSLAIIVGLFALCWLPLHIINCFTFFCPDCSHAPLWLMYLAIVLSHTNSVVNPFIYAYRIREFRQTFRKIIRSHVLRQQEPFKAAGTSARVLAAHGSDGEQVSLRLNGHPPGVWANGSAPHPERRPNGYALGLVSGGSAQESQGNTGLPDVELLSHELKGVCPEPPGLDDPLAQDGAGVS
Experimental: (§3) Using conventional receptor binding assay techniques, Compounds 1-24 were assayed to determine binding activity at the A2A, A1, and A3 receptors with the results shown in Table 7.
(§4) Receptor binding affinity of Compounds 1-24 was measured using radioligand binding assays using commercially obtained cell membranes prepared from cell lines overexpressing the A2A, A1, or A3 receptors. Briefly, cell membrane preparations from cells expressing the specific receptor were mixed with the appropriate [^3H]-labeled tracer for the specific receptor and the test compound or a known inhibitor of receptor-ligand binding. Following 60 min incubation at room temperature to allow receptor-ligand complex formation, the complexes were collected by filtration, washed with 50 mM Tris HCl (pH 7.5) to remove radioligand that was not receptor-bound, and the remaining radioactivity determined by liquid scintillation counting. Specific radioligand binding was calculated for each test compound concentration and IC50 values were determined by non-linear, regression analysis. Inhibition constants (Ki) were calculated using the equation of Cheng and Prusoff using the observed IC50 of the tested compound, the concentration of radioligand employed in the assay and the experimentally determined values for the Kd of the ligand.

A1 receptor = biological target: T2, A1 receptor (Homo sapiens, UniProt P30542); assay: Radioligand receptor binding assay, A1 receptor; settings: cell membranes overexpressing A1 receptor, read-out: Potency Ki A1
T2 construct: purchased
T2 sequence (P30542 1-326): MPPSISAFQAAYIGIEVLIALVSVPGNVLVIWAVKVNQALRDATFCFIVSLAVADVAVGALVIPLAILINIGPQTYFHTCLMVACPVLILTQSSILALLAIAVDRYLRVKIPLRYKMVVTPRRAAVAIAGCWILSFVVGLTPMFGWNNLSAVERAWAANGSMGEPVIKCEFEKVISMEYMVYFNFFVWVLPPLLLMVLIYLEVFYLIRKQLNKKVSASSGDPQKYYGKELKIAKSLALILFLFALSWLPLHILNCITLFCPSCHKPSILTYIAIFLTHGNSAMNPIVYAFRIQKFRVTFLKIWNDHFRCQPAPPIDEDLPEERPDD
Experimental: as §3, §4

mouse CT-26 cells = assay: Antitumor activity in CT26 subcutaneous tumor model in Balb/c mice; format: in vivo; settings: day 13 vs vehicle; 30 mg/kg qdx9 PO + anti-PD1 antibody 200 μg/mouse q2dx4 IP
Experimental: Mice used were ˜ 6-8 week-old female Balb/c mice subcutaneously inoculated with 2×10^6 mouse CT-26 cells. […] The mice were divided into six treatment groups as follows: vehicle (qdx9) PO+IP, Compound 1 (10 mg/kg, qdx9)+an exemplary anti-mouse PD1 (CD279) antibody (BioXCell) (200 μg/mouse, q2dx4); Compound 1 (30 mg/kg, qdx9)+anti-PD1 antibody (200 μg/mouse, q2dx4), Compound 1 (100 mg/kg)+anti-PD1 antibody (200 μg/mouse, q2dx4), anti-PD1 antibody (200 μg/mouse, q2dx4), or preladenant (30 mg/kg, qdx9)+anti-PD1 antibody (200 μg/mouse, q2dx4). Compound 1 and preladenant were administered orally. The anti-PD1 antibody was administered IP. Body weight was measured daily. Tumor growth of the CT26 cells was monitored three times per week by measuring the tumor volume size using a caliper with the results shown in FIG. 5.

Compound	AUC [1]	clearance [1]	bioavailability [1]	Kp at 1 h [2]	pKi (A2A receptor)	pKi (A1 receptor)	half-life ([1]; Table 6, printed in the CL column, read-out: t½ (converted))	% TGI (mouse CT-26 cells)
COCCOc1ccc(N2CCN(CCN(C)c3cc4nc(-c5ncco5)nn4c(N)n3)CC2)c(Cl)c1 [Compound 15, N^7-(2-{4-[2-chloro-4-(2-methoxyethoxy)phenyl]piperazin-1-yl}ethyl)-N^7-methyl-2-(1,3-oxazol-2-yl)[1,2,4]triazolo[1,5-c]pyrimidine-5,7-diamine]	1160 ng·h/mL	20 mL/min/kg	57%	0.05	8.64	5.40	1.2 h	–
COCCOc1cnc(N2CCN3[C@H](CC[C@H]3CN(C)c3cc4nc(-c5ncco5)nn4c(N)n3)C2)c(F)c1 [Compound 21, N^7—({(6S,8aR)-2-[3-fluoro-5-(2-methoxyethoxy)pyridin-2-yl]octahydropyrrolo[1,2-a]pyrazin-6-yl}methyl)-N^7-methyl-2-(1,3-oxazol-2-yl)[1,2,4]triazolo[1,5-c]pyrimidine-5,7-diamine]	429 ng·h/mL	30 mL/min/kg	31%	0.05	8.10	5.51	–	–
Preladenant [reference compound]	–	–	–	–	–	–	–	56^3%

The next lines start with results.

AUC [1]	clearance [1]	bioavailability [1]	Kp at 1 h [2]	pKi (A2A receptor)	pKi (A1 receptor)	half-life ([1]; Table 6, printed in the CL column, read-out: t½ (converted))	Compound	% TGI (mouse CT-26 cells)
1000 ng·h/mL	23 mL/min/kg	56%	0.03	8.40	< 4.00	–	[2H]C([2H])([2H])OC([2H])([2H])C([2H])([2H])Oc1ccc(N2CCN(CCN(C)c3cc4nc(-c5ncco5)nn4c(N)n3)CC2)cc1 [Compound 12, N^7-methyl-N^7-(2-{4-[4-({2-[(^2H3)methyloxy](^2H4)ethyl}oxy)phenyl]piperazin-1-yl}ethyl)-2-(1,3-oxazol-2-yl)[1,2,4]triazolo[1,5-c]pyrimidine-5,7-diamine]	–
1170 ng·h/mL	17 mL/min/kg	50%	0.05	8.22	< 4.00	–	[2H]C([2H])([2H])OC([2H])([2H])C([2H])([2H])Oc1ccc(N2C([2H])([2H])C([2H])([2H])N(C([2H])([2H])C([2H])([2H])N(c3cc4nc(-c5ncco5)nn4c(N)n3)C([2H])([2H])[2H])C([2H])([2H])C2([2H])[2H])cc1 [Compound 20, N^7-(^2H3)methyl-N^7-[2-{4-[4-({2-[(^2H3)methyloxy](^2H4)ethyl}oxy)phenyl](^2H8)piperazin-1-yl}(^2H4)ethyl]-2-(1,3-oxazol-2-yl)[1,2,4]triazolo[1,5-c]pyrimidine-5,7-diamine]	–
336 ng·h/mL	52 mL/min/kg	42%	0.08	8.05	4.81	–	COCCOc1ccc(N2CCN(CCN(C)c3cc4nc(-c5ncco5)nn4c(N)n3)CC2)nc1 [Compound 23, N^7-(2-{4-[5-(2-methoxyethoxy)pyridin-2-yl]piperazin-1-yl}ethyl)-N^7-methyl-2-(1,3-oxazol-2-yl)[1,2,4]triazolo[1,5-c]pyrimidine-5,7-diamine]	–
852 ng·h/mL	34 mL/min/kg	64%	0.05	7.92	< 5.40	–	[2H]C([2H])([2H])N(CCN1CCN(c2ccc(OCCOC)cc2)CC1)c1cc2nc(-c3ncco3)nn2c(N)n1 [Compound 6, N^7-(2-{4-[4-(2-methoxyethoxy)phenyl]piperazin-1-yl}ethyl)-N^7-(^2H3)methyl-2-(1,3-oxazol-2-yl)[1,2,4]triazolo[1,5-c]pyrimidine-5,7-diamine]	–
406 ng·h/mL	44 mL/min/kg	43%	0.03	7.70	4.93	–	COCCOc1ccc(N2CCN(CCN(C)c3cc4nc(-c5ncco5)nn4c(N)n3)CC2)c(OC)c1 [Compound 17, N^7-(2-{4-[2-methoxy-4-(2-methoxyethoxy)phenyl]piperazin-1-yl}ethyl)-N^7-methyl-2-(1,3-oxazol-2-yl)[1,2,4]triazolo[1,5-c]pyrimidine-5,7-diamine]	–
